What was measured:
[1] = test system: aspartate levels in cells; details: irrespective of PHGDH levels; cited from earlier work
[2] = Aqueous kinetic solubility; format: physicochemical; details: pH 7.4
PHGDH = details: cited from earlier work

Structure (SMILES)	Aqueous Solubility (kinetic) [2]	efficacy in vivo (PHGDH)	further results
Cc1cc(C)nc(NC(=S)N2CCN(c3ccc(C(F)(F)F)cn3)CC2)c1 [Compound 27, N-(4,6-dimethylpyridin-2-yl)-4-(5-(trifluoromethyl)pyridin-2-yl)piperazine-1-carbothioamide]	–	–	aspartate levels in cells [1]: reduce aspartate levels in cells
Cc1cc(C)nc(NC(=S)N2CCCC(Nc3ccc(C(F)(F)F)cc3)C2)c1 (centres unmarked) [Compound 33]	below the limits of quantitation	–	–
Cc1cc(C)nc(NC(=S)N2CCC(Nc3cccc(C(F)(F)F)c3)CC2)c1 [Compound 37]	below the limits of quantitation	–	–
O=C(N/N=C/c1cc([N+](=O)[O-])ccc1O)c1ccc(O)cc1O [PKUMDL-WQ-2101]	–	efficacious in vivo	–
CCNC(=S)N/N=C/c1ccc(-c2ccc(C(=O)O)c(Cl)c2)o1 [PKUMDL-WQ-2201]	–	efficacious in vivo	–

Source: publication PMC5891386 (Bioorganic & medicinal chemistry, 2018)
